Results taken from ChEMBL document CHEMBL5226288, “A perspective on medicinal chemistry approaches towards adenomatous polyposis coli and Wnt signal based colorectal cancer inhibitors” (Eur J Med Chem, 2021).
Non-standard residues stand in square brackets, D forms with d. Residues, ends and D or L forms follow the SMILES beside them. *: point of attachment. Ala(cPent) = N[C@@H](CC1CCCC1)C(=O)O; Cbz = O=C(OCc1ccccc1)*

Assays:
[1] = target: T1, 7-dehydrocholesterol reductase (Homo sapiens, UniProt Q9UBM7); test: Inhibition of DHCR7 (unknown origin)
T1 sequence (Q9UBM7 whole entry): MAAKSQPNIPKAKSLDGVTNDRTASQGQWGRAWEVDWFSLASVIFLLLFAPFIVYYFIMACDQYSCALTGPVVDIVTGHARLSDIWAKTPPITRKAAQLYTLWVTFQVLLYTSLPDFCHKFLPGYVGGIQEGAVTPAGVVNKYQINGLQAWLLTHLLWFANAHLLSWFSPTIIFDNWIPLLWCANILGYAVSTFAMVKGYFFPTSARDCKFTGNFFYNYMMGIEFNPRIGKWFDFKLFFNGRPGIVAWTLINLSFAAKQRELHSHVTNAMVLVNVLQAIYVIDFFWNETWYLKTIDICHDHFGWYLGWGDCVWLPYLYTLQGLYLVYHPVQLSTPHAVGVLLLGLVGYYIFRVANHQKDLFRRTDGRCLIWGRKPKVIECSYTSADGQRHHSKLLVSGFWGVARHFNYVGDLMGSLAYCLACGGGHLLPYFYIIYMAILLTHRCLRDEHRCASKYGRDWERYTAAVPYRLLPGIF

[2] = target: 3-beta-hydroxysteroid-Delta(8),Delta(7)-isomerase (Homo sapiens, UniProt Q15125); test: Inhibition of EBP (unknown origin)
Sequence of 3-beta-hydroxysteroid-Delta(8),Delta(7)-isomerase (Q15125 whole entry): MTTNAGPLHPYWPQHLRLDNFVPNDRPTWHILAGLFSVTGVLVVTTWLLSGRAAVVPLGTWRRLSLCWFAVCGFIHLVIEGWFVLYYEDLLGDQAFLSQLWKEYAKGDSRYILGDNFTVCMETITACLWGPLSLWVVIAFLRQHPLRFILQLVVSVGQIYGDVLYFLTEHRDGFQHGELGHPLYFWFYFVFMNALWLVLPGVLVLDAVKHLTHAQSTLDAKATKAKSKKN

HCT-116 [3] = test: Anticancer activity against human HCT-116 cells assessed as reduction in cell viability incubated for 24 hrs by Cell Titer-Glo assay; assay type: functional, cell-based; conditions: HCT-116, 24 h
DLD-1 [4] = test: Anticancer activity against human DLD-1 cells assessed as reduction in cell viability incubated for 24 hrs by Cell Titer-Glo assay; assay type: functional, cell-based; conditions: DLD-1, 24 h
HCT-116 [5] = test: Antiproliferative activity against human HCT-116 cells assessed as reduction in cell proliferation incubated for 72 hrs by MTS assay; assay type: functional, cell-based; conditions: HCT-116, 72 h
HCT-116 [6] = test: Anticancer activity against human HCT-116 cells assessed as reduction in cell viability; assay type: functional, cell-based
[7] = target: T2, Adenomatous polyposis coli protein (Homo sapiens, UniProt P25054); test: Inhibition of APC (303 to 739 residues) (unknown origin) assessed as inhibition constant preincubated for 60 mins followed by substrate addition and measured after 60 mins using Ac-GGGGEQLAINELISDGK-FITC as substrate by fluorescence polarization assay
T2 sequence (P25054 whole entry, the tested form may be a part): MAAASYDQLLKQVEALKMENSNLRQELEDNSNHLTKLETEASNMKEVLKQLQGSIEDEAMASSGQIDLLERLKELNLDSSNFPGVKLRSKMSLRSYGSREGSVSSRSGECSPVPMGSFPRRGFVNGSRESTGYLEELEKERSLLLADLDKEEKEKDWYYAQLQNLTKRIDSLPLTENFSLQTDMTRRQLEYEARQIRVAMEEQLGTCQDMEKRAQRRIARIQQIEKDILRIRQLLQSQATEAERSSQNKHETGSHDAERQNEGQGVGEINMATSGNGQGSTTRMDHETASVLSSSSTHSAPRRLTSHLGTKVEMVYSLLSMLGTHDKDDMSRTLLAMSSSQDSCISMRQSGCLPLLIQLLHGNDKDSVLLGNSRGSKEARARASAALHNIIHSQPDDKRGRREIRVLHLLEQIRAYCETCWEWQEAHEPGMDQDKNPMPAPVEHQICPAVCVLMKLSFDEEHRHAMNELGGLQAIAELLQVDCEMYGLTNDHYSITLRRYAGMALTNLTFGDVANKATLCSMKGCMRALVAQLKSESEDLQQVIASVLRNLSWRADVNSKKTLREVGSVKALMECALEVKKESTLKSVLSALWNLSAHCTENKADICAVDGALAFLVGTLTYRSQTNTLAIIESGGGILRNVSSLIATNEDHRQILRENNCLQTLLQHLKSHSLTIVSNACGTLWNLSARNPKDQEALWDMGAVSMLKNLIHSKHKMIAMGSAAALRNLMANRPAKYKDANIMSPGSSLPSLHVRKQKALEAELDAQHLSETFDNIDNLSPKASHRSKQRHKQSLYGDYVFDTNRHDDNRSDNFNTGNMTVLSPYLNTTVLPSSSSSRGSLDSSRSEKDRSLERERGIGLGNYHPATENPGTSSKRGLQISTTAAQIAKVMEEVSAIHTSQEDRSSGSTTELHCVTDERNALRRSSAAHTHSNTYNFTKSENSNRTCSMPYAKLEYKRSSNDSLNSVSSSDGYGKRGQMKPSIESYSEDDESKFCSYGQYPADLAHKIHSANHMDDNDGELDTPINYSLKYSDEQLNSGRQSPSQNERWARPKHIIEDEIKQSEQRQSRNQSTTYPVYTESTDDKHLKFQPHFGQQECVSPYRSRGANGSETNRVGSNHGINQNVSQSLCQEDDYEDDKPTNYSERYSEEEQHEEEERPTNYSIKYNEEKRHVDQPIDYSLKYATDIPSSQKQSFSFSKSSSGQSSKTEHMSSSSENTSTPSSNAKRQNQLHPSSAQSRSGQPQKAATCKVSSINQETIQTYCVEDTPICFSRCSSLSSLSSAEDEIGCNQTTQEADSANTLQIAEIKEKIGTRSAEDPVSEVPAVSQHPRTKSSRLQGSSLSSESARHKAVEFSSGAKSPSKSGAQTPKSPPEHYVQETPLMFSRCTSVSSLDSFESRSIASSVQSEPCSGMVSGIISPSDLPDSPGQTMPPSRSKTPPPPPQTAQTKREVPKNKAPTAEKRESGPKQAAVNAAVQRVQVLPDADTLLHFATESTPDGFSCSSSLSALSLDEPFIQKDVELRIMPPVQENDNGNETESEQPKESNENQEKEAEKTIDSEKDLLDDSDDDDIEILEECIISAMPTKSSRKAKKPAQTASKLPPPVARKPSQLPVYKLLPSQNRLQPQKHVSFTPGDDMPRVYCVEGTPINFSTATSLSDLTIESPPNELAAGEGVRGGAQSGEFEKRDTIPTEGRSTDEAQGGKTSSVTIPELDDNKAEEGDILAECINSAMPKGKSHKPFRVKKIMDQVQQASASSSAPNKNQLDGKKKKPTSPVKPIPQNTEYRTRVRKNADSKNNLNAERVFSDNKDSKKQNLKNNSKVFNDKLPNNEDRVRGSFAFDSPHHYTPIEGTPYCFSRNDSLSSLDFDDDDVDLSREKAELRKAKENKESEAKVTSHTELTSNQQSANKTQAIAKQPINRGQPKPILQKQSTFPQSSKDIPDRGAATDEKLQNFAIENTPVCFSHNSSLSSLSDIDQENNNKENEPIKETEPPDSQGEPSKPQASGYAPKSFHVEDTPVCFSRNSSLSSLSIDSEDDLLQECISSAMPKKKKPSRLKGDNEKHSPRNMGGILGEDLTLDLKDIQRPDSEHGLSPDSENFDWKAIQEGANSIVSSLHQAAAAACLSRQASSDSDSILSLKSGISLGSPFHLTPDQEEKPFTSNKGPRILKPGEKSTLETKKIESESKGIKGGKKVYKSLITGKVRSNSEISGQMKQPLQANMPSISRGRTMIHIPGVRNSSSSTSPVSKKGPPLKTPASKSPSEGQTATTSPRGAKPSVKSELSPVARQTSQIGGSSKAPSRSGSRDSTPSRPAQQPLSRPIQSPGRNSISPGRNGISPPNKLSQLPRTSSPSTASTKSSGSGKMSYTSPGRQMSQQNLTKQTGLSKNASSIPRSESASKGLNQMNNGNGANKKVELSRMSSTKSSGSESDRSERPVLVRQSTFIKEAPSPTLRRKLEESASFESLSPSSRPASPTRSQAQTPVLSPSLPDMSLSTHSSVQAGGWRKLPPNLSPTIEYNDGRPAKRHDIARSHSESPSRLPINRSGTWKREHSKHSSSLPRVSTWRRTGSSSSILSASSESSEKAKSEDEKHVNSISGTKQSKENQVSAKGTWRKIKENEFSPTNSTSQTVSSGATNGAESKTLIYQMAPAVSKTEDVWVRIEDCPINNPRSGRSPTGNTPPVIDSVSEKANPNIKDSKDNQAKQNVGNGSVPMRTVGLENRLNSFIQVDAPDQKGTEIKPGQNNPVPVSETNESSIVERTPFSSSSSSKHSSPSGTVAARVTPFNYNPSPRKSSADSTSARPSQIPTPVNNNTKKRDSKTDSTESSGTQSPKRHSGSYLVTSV

[8] = target: T2, Adenomatous polyposis coli protein; test: Inhibition of APC (303 to 739 residues) (unknown origin) preincubated for 60 mins followed by substrate addition and measured after 60 mins using Ac-GGGGEQLAINELISDGK-FITC as substrate by fluorescence polarization assay
DNA polymerase beta = DNA polymerase beta (Homo sapiens, UniProt P06746); test: Inhibition of human DNA polymerase beta using 32P-labeled 63-mer F-DNA substrate preincubated for 5 mins followed by substrate addition and measured after 45 mins by autoradiography
[9] = Inhibition of Wnt/beta-catenin signaling pathway in mouse L Wnt-3A cells harbouring STF-reporter gene assessed as assessed as reduction in luciferase activity incubated for 24 hrs by luciferase reporter assay; assay type: cell-based
SW480 [10] = test: Anticancer activity against human SW480 cells assessed as reduction in cell viability; assay type: functional, cell-based
SW480 [11] = test: Anticancer activity against human SW480 cells assessed as cell growth inhibition by SRB assay; assay type: functional, cell-based
DLD-1 [12] = test: Anticancer activity against human DLD-1 cells assessed as cell growth inhibition by SRB assay; assay type: functional, cell-based

In the case of `CC1CCN(C2CCN(S(=O)(=O)c3ccc(OC(C)C)cc3)CC2)CC1`, the IC50 [1] is reported as 0.03 µM and the IC50 [2] is reported as less than 1 µM.
With `Cn1cnc2c(F)c(Nc3ccc(Br)cc3Cl)c(C(=O)NOCCO)cc21` [SELUMETINIB] the IC50 (HCT-116 [3]) was 0.95 µM and the IC50 (DLD-1 [4]) was 1.25 µM.
Work on `COC(=O)c1c(C)cc2c(c1O)[C@]1(O)C(=O)c3cc4c(c(O)c3C(=O)[C@]1(OC)[C@H](O)C2)C(=O)C=C(N[C@H]1O[C@@H](C)[C@H](OC)[C@@H](O)[C@H]1OC)C4=O` yielded an IC50 (HCT-116 [5]) of less than 0.15 µM.
Compound `NC1=NC(=O)N(C2CC(O)C(COP(=O)(O)O)O2)C(I)C1` (configuration not stated) has an IC50 (HCT-116 [6]) of less than 50 µM.
In the case of Ac-GGEALAW-OH, the Ki [7] is reported as 3.12 µM and the IC50 [8] is reported as 10.1 µM.
In the case of `Cc1cc(C)c(S(=O)(=O)N2CCC(N3CN4CCC3CC4)CC2)c(C)c1`, the IC50 [1] is reported as 2.04 µM and the IC50 [2] is reported as 0.188 µM.
For `Cc1cc(C)c(S(=O)(=O)Nc2n[nH]c(Nc3ccccc3)n2)cc1C`, the IC50 (DNA polymerase beta) was less than 50 µM.
H-GGEQLAI-OH showed a Ki [7] of 44.6 µM and an IC50 [8] of 135 µM.
For `COc1ccc(-n2nc(C(=O)NCC(=O)Nc3nc4ccc(OC)cc4s3)c3ccccc3c2=O)cc1`, the IC50 [9] was 0.058 µM.
In the case of `CC(=O)Nc1cccc(-n2c(=O)n(C3CC3)c(=O)c3c(Nc4ccc(I)cc4F)n(C)c(=O)c(C)c32)c1` [TRAMETINIB], the IC50 (HCT-116 [3]) is reported as 1.16 µM and the IC50 (DLD-1 [4]) is reported as 1.34 µM.
With `COc1c(C[C@@H](C)OC(=O)c2c(C)cc(O)cc2O)c2c3c(C[C@@H](C)OC(=O)c4c(C)cc(O)cc4O)c(OC)c(=O)c4c(O)cc(OC)c(c5c(OC)cc(O)c(c1=O)c52)c43` the IC50 (HCT-116 [5]) was 3.6 µM.
Work on `Cc1ccc(-n2nc(C(=O)NCC(=O)Nc3nc4ccc(C)cc4s3)c3c(c2=O)SCC3)cc1` yielded an IC50 [9] of 0.025 µM.
Compound `Cc1cc(C)c(S(=O)(=O)N2CCC(N3CCCCCC3)CC2)c(C)c1` has an IC50 [1] of 1.39 µM and an IC50 [2] of 0.00936 µM.
`CCOC(=O)C[C@H](NC(=O)[C@H](Cc1c[nH]c2ccccc12)NC(=O)Cc1cc2cc(C)ccc2[nH]1)C(=O)N[C@@H](CCC(=O)O)C(=O)OC` gave an IC50 (SW480 [10]) of 10.8 µM and an IC50 (HCT-116 [6]) of 28.8 µM.
Work on `Cn1ncnc2c(=O)n(C)c(=O)nc1-2` yielded an IC50 (HCT-116 [5]) of 2.86 µM.
`Cc1cc(SC(=O)O)c(S(=O)(=O)Nc2n[nH]c(Nc3ccccc3)n2)cc1C` gave an IC50 (DNA polymerase beta) of less than 50 µM.
Work on `N#CC(=C(/N)Sc1ccccc1N)/C(C#N)=C(\N)Sc1ccccc1N` yielded an IC50 (HCT-116 [3]) of 0.94 µM and an IC50 (DLD-1 [4]) of 1.14 µM.
`Cn1nnc2c(C(N)=O)ncn2c1=O` [TEMOZOLOMIDE] showed an IC50 (HCT-116 [6]) of less than 50 µM.
Compound `COc1cccc(Nc2nc(NS(=O)(=O)c3cc(C)c(C)cc3C)n[nH]2)c1` has an IC50 (DNA polymerase beta) of less than 50 µM.
In the case of `Cc1cc(C)c(S(=O)(=O)Nc2n[nH]c(Nc3ccc4ccccc4c3)n2)cc1C`, the IC50 (DNA polymerase beta) is reported as less than 50 µM.
Compound Ac-GGEALAD-OH has a Ki [7] of 3.8 µM and an IC50 [8] of 12.2 µM.
Work on `COc1c(C[C@@H](C)OC(=O)Oc2ccc(O)cc2)c2c3c(C[C@@H](C)OC(=O)c4ccccc4)c(OC)c(=O)c4c(O)cc(OC)c(c5c(OC)cc(O)c(c1=O)c52)c43` [CALPHOSTIN C] yielded an IC50 (HCT-116 [5]) of 2.86 µM.
In the case of `CC/C(=N/NC(=O)c1ccccc1)c1cc(C)cc(C)c1O`, the IC50 (SW480 [11]) is reported as 1.7 µM and the IC50 (DLD-1 [12]) is reported as 0.9 µM.
`Cc1ccc(-c2ccc(S(=O)(=O)N3CCC(N4CCC(C)CC4)CC3)cc2)cc1` showed an IC50 [1] of 0.0001 µM and an IC50 [2] of 0.049 µM.
Compound `CC/C(=N/NC(=O)c1ccnc(NCCN2CCOCC2)c1)c1ccc(C)cc1O` has an IC50 (SW480 [11]) of 0.9 µM and an IC50 (DLD-1 [12]) of 0.5 µM.
`CC(C)C[C@H](NC(=O)[C@H](C)NC(=O)[C@H](CCC(=O)O)NC(=O)CNC(=O)[C@H](C)NC(=O)OCc1ccccc1)C(=O)N[C@@H](Cc1ccc(O)cc1)C(=O)N[C@@H](CCC(=O)O)C(=O)O` (Cbz-AGEALYE-OH) gave a Ki [7] of 0.12 µM and an IC50 [8] of 1.09 µM.
In the case of `CCCC(=O)c1cc2c(c(O)c1C)C(=O)C(=O)c1c(O)cccc1-2`, the IC50 (HCT-116 [5]) is reported as 0.78 µM.
In the case of `Cc1cc(C)c(S(=O)(=O)N2CCC(NCc3ccccc3)CC2)c(C)c1`, the IC50 [1] is reported as 1.07 µM and the IC50 [2] is reported as 0.00295 µM.
In the case of `O=C1Nc2ccccc2C12OCC1(CO2)COC2(OC1)C(=O)Nc1ccccc12` (configuration not stated), the IC50 (SW480 [10]) is reported as 0.69 µM.
For `CN1CCN(S(=O)(=O)c2ccc(N3CCCC3=O)cc2)c2ccccc21`, the IC50 (SW480 [10]) was 0.015 µM and the IC50 (HCT-116 [6]) was 0.008 µM.
In the case of `C[C@H](NC(=O)OCc1ccccc1)C(=O)NCC(=O)N[C@@H](CCC(=O)O)C(=O)N[C@@H](C)C(=O)N[C@@H](CC1CCCC1)C(=O)N[C@@H](Cc1ccc(O)cc1)C(=O)N[C@@H](CCC(=O)O)C(=O)O` (Cbz-AGEA[Ala(cPent)]YE-OH), the Ki [7] is reported as 0.015 µM and the IC50 [8] is reported as 0.57 µM.
`Cc1cc(C)c(S(=O)(=O)N2CCC([N+]3(C)CCCC3)CC2)c(C)c1` showed an IC50 [1] of 50 µM and an IC50 [2] of 0.303 µM.
For `COC(=O)c1cccc(NS(=O)(=O)c2ccc(C)cc2)c1`, the IC50 (HCT-116 [6]) was 0.58 µM.
Compound `Cc1cc(C(=O)N/N=C\c2ccccc2O)c2cc(Br)ccc2n1` has an IC50 (SW480 [11]) of 0.6 µM and an IC50 (DLD-1 [12]) of 1 µM.
Compound `COc1ccccc1-n1nc(C(=O)NCC(=O)Nc2nc3ccc(C)cc3s2)c2c(c1=O)SCC2` has an IC50 [9] of 0.04 µM.
For Ac-AGEALAD-OH, the Ki [7] was 2.41 µM and the IC50 [8] was 7.97 µM.
Work on `Cc1ccc2nc(NC(=O)CNC(=O)c3nn(-c4ccccc4)c(=O)c4c3CCS4)sc2c1` yielded an IC50 [9] of 0.027 µM.
